{
  "source": "patent US12697316B2",
  "about": "“Combination therapy with acetyl-leucine and miglustat” (INTRABIO LTD., priority 2019, dated 2026)",
  "key": {"NPC patients": {"test_system": "NPC patients", "assay": "Observational clinical study of adult NPC patients treated with ADLL", "format": "in vivo, human", "description": "Progression of a LSD or one or more symptoms of a LSD over time or through treatment can be monitored, for example, using one or more known tests at two or more time points and comparing the results. Disease progression and/or severity can be assessed, for example, using the Scale for the Assessment and Rating of Ataxia (SARA), Spinocerebellar Ataxia Functional Index (SCAFI), the International Cooperative Ataxia Rating Scale (ICARS), the brief ataxia rating scale (BARS), the modified Disability Rating Scale (mDRS), EuroQol 5Q-5D-5L (EQ-5D-5L), the visual analogue scale (VAS), Wechsler Adult Intelligence Scale-Revised (WAIS-R), Wechsler Intelligence Scale for Children-IV (WISC-IV), Montreal Cognitive Assessment (MoCA) or other suitable tests. For certain LSDs, such as NPC, particular scores have been developed and validated over the last decades, for instance the clinical severity score (CSS) and annual severity increment score (ASIS) (see Yanjanin et al., “Linear Clinical Progression, Independent of Age of Onset, in Niemann—Pick Disease, Type C,” Am J Med Genet Part B 153B:132-140) and the modified 6-Domain NP-C disability Scale (mDRS score). For example, an NPC patient's severity can be quantified by assigning a CSS, which assesses various parameters of the disease (ambulation, seizures, eye movement, etc.) and gives each parameter a score out of 5. A higher score equals a greater severity. The ASIS quantifies the annual rate of change in the CSS, calculated by dividing the CSS by the patient's age. In this regard, certain scores in these tests are characteristic of symptomatic LSD patients and evidence disease progression and/or severity.\nDemographics and statistical analysis of a clinical observational study of adult NPC patients treated with ADLL: The cohort comprised 3 females and 10 males. Consent from all participants was obtained. Twelve of the NPC patients were on miglustat therapy (minimum exposure 2.65, 1t^st quartile 3.44, median 4.92, mean 4.87, 3rd quartile 5.80 and maximum 7.98 years). The thirteen NPC1 patients participated in an observational study treated with 5 g/day acetyl-DL-leucine (Tanganil™). Three patients had four prospective clinical severity score measurements and ten patients had five measurements taken during this observational study (NIH, CSS). Retrospective data were used to calculate rates of disease progression prior to recruitment to this study. The mean age at the start of acetyl-DL-leucine (Tanganil™) treatment was 26.59 years. The minimum age was 15.44, 1s^t quartile 20.97, median 26.98 and third quartile 30.79 with maximum age 37.37 years. The time in the observational treatment study was a […], 1st quartile 0.81, median 1, mean 0.95, third quartile 1.13 and maximum 1.21 years."}, "Sandhoff (Hexb^−/−) mice [1]": {"test_system": "Sandhoff (Hexb^−/−) mice", "assay": "Survival of Sandhoff (Hexb−/−) mice", "format": "in vivo, mouse", "settings": "Hexb−/− mice treated from weaning, 0.1 g/kg/day", "protocol": "(§1) BALBc/NPC ^h and Sandhoff mice were bred as heterozygotes to generate affected mice (Npc1^−/−, Hexb^−/−) and controls (Npc^+/+, Hexb^+/+). The mice were housed under non-sterile conditions, with food and water available ad libitum. All experiments were conducted using protocols approved by the UK Home Office Animal Scientific Procedures Act, 1986.\n[…] Treatment groups for in vivo study consisted of at least 5 mice per group. In vitro studies were conducted with each compound dissolved in PBS to generate a 50 mM stock solution and diluted to a 1 mM working concentration in media (DMEM High Glucose-Gibco #10566016).\n(§2) The weight and activity of each mouse was recorded weekly until reaching the humane endpoint (defined as a loss of 1 g body weight within 24 h). Gait analysis was performed using CatWalk 10.5 system (Noldus) according to the manufacturer's instructions and five runs were recorded per animal at each time point. The camera was set to 40 cm below the walkway, the walkway was approximately 4 cm wide, and detection settings set to camera gain 14.05 and green intensity 0.12. Motor function was measured using an accelerating NG Rota Rod for mice (Ugo Basile) starting from 1 rpm to 10 rpm, accelerating every 30 seconds by one rpm. […] Latency to cross or fall from the bar was scored, with 120 sec, maximum, to termination of each trial. […]"}, "Sandhoff (Hexb^−/−) mice [2]": {"test_system": "Sandhoff (Hexb^−/−) mice", "assay": "Bar crossing test in Sandhoff (Hexb−/−) mice", "format": "in vivo, mouse", "settings": "12 and 13 weeks", "protocol": "as §1\nADLL and enantiomers (ADLL: Molekula #73891210, ALL: Sigma Aldrich #441511, ADL: Sigma #A0876) were administered as dry admix in powdered mouse diet (PicoLab Rodent Diet 20/5053, LabDiet) at a dose of 0.1 g/kg/day for in vivo studies. Treatment groups for in vivo study consisted of at least 5 mice per group. […]\nas §2, with “The camera was set to 40 cm below the walkway, the walkway was approximately 4 cm wide, and detection settings set to camera gain 14.05 and green intensity 0.12.” left out"}, "[3]": {"settings": "number of the 13 treated NPC patients, neurological subdomain"}},
  "data": [
    {"smiles": "CC(=O)NC(CC(C)C)C(=O)O", "note": "(racemic) [ADLL, N-acetyl-DL-leucine]", "values": [
      {"measurement": "mean change in Annual Severity Increment Scores (ASIS)", "setting": "NPC patients; 13 NPC patients", "value": "−9.1", "unit": "%/year"},
      {"measurement": "average slope of disease progression (total clinical severity score) following initiation of treatment", "setting": "NPC patients; 13 adult NPC patients, 5 g/day, 12 also on miglustat, average slope before treatment 1.8", "value": "−1.78", "unit": "severity units/year"},
      {"measurement": "Ambulation: Deteriorated", "setting": "NPC patients; [3]", "value": 1},
      {"measurement": "Ambulation: Improved", "setting": "NPC patients; [3]", "value": 8},
      {"measurement": "Ambulation: Stable", "setting": "NPC patients; [3]", "value": 4},
      {"measurement": "Cognition: Deteriorated", "setting": "NPC patients; [3]", "value": 1},
      {"measurement": "Cognition: Improved", "setting": "NPC patients; [3]", "value": 6},
      {"measurement": "Cognition: Stable", "setting": "NPC patients; [3]", "value": 6},
      {"measurement": "Eye movement: Deteriorated", "setting": "NPC patients; [3]", "value": 1},
      {"measurement": "Eye movement: Improved", "setting": "NPC patients; [3]", "value": 8},
      {"measurement": "Eye movement: Stable", "setting": "NPC patients; [3]", "value": 4},
      {"measurement": "Fine motor skills: Deteriorated", "setting": "NPC patients; [3]", "value": 2},
      {"measurement": "Fine motor skills: Improved", "setting": "NPC patients; [3]", "value": 8},
      {"measurement": "Fine motor skills: Stable", "setting": "NPC patients; [3]", "value": 3},
      {"measurement": "Memory: Deteriorated", "setting": "NPC patients; [3]", "value": 1},
      {"measurement": "Memory: Improved", "setting": "NPC patients; [3]", "value": 10},
      {"measurement": "Memory: Stable", "setting": "NPC patients; [3]", "value": 2},
      {"measurement": "Speech: Deteriorated", "setting": "NPC patients; [3]", "value": 3},
      {"measurement": "Speech: Improved", "setting": "NPC patients; [3]", "value": 3},
      {"measurement": "Speech: Stable", "setting": "NPC patients; [3]", "value": 7},
      {"measurement": "Swallow: Deteriorated", "setting": "NPC patients; [3]", "value": 1},
      {"measurement": "Swallow: Improved", "setting": "NPC patients; [3]", "value": 10},
      {"measurement": "Swallow: Stable", "setting": "NPC patients; [3]", "value": 2},
      {"measurement": "patients with negative slopes following initiation of treatment", "setting": "NPC patients; of 13 NPC patients", "value": 10},
      {"measurement": "patients with no slope following initiation of treatment", "setting": "NPC patients; of 13 NPC patients", "value": 3},
      {"measurement": "median increase in lifespan", "setting": "Sandhoff (Hexb^−/−) mice [1]", "value": 8, "unit": "days"},
      {"measurement": "Bar-crossing test performance", "setting": "Sandhoff (Hexb^−/−) mice [2]", "value": "significantly improved"}
    ]}
  ]
}
